Positions count from the first letter of the chain named.
Assays:
Assay type in all cases: cell-based
GluD2 [1] = target: T1, GluD2 (Mus musculus, UniProt Q61625, I677C); assay: patch-clamp of DHPG-induced current under […] vs […] nm light; WT control insensitive
T1 construct: gene Grid2; non-Lurcher GluD2 (LiGluD2) co-expressed with mGlu1b in HEK tsA201 cells
T1 sequence (Q61625 24-1007 I677C): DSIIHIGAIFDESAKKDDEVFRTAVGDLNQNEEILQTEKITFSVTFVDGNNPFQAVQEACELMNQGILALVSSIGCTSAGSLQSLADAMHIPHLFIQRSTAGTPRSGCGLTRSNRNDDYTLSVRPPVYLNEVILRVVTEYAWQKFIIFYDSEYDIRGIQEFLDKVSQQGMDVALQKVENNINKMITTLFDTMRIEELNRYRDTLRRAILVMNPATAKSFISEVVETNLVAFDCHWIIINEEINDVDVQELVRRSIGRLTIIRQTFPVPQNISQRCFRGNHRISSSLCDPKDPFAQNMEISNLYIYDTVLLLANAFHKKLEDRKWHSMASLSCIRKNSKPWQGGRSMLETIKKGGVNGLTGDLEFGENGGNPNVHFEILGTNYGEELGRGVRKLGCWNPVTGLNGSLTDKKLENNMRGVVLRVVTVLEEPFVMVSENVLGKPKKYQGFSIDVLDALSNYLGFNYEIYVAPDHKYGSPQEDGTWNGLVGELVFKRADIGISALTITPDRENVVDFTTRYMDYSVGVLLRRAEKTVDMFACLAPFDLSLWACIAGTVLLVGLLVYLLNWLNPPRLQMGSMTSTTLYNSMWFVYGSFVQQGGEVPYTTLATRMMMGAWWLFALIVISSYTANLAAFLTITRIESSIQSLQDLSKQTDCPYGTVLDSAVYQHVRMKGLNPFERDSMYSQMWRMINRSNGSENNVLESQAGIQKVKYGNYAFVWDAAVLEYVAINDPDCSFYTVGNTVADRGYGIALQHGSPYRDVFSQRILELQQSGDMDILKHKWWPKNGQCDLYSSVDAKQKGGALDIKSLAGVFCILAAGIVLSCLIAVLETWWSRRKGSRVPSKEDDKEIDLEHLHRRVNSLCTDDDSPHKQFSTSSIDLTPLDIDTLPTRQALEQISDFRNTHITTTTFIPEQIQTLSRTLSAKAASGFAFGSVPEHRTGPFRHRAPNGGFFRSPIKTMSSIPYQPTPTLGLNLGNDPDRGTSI

GluD2 [2] = target: T2, GluD2 (Mus musculus, UniProt Q61625, A654T/D670C); assay: whole-cell patch-clamp photoswitching after covalent labeling
T2 construct: gene Grid2; pcDNA3-GluD2 expressed in HEK tsA201 cells
T2 sequence (Q61625 24-1007 A654T/D670C): T1 sequence (Q61625 24-1007 I677C) with A631T, D647C, C654I

GluD2 [3] = target: T3, GluD2 (Mus musculus, UniProt Q61625, A654T/Q666C); assay: as above
T3 construct: gene Grid2; pcDNA3-GluD2 expressed in HEK tsA201 cells
T3 sequence (Q61625 24-1007 A654T/Q666C): T1 sequence (Q61625 24-1007 I677C) with A631T, Q643C, C654I

GluD2 [4] = target: T4, GluD2 (Mus musculus, UniProt Q61625, A654T/Q674C); assay: as above
T4 construct: gene Grid2; pcDNA3-GluD2 expressed in HEK tsA201 cells
T4 sequence (Q61625 24-1007 A654T/Q674C): T1 sequence (Q61625 24-1007 I677C) with A631T, Q651C, C654I

GluD2 [5] = target: T5, GluD2 (Mus musculus, UniProt Q61625, A654T/I677C); assay: whole-cell patch-clamp dose-response ([…]) under […] nm light; […] under […] nm
T5 construct: gene Grid2; pcDNA3-GluD2 expressed in HEK tsA201 cells, conjugated with MAGu
T5 sequence (Q61625 24-1007 A654T/I677C): T1 sequence (Q61625 24-1007 I677C) with A631T

IC50 (GluD2 [5]) [µM]	Structure (SMILES)	% reduction of DHPG-induced current (535 vs 380 nm) (GluD2 [1])	% photoswitching (relative to pentamidine block) (GluD2 [2])	% photoswitching (relative to pentamidine block) (GluD2 [3])	% photoswitching (relative to pentamidine block) (GluD2 [4])
–	N=C(N)NCC(=O)Nc1ccc(/N=N/c2ccc(NC(=O)CCN3C(=O)C=CC3=O)cc2)cc1 [MAGu]	22.8 % reduction of DHPG-induced current (535 vs 380 nm)	14.6 % photoswitching (relative to pentamidine block)	15.5 % photoswitching (relative to pentamidine block)	20.5 % photoswitching (relative to pentamidine block)
5.1	N=C(N)c1ccc(OCCCCCOc2ccc(C(=N)N)cc2)cc1 [Pentamidine]	–	–	–	–
